This note sets out measurements from PMC5147970 (Biochemistry, 2015).

Values joined by “and” are separate entries in the source; they are usually repeats but may differ in a detail not shown here. Identical values can stand only once.

The target of test [1] is chymotrypsin-truncated R67 dihydrofolate reductase cross-linked to folate with EDC. Kind of test: AUC.
In test [2] the target is chymotrypsin-truncated R67 dihydrofolate reductase. The experiment in a line: AUC.
Test [3] deals with T1, R67 dihydrofolate reductase (R67 DHFR) (Escherichia coli, UniProt P00383).
T1 sequence (P00383 1-78): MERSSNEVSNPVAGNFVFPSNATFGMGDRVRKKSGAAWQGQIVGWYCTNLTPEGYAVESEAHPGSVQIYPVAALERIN
The experiment in a line: steady-state DHFR inhibition, Lineweaver–Burk slope replot. In kind it is biochemical.

Test [4] has as its target T2, R67 dihydrofolate reductase (K33M) (Escherichia coli, UniProt P00383, K33M).
T2 sequence (P00383 4-78 K33M): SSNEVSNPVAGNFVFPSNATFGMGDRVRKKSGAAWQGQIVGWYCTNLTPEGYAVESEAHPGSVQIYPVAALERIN
The experiment in a line: folate reduction kinetics. It is filed as biochemical.

Test [5] addresses T1, R67 dihydrofolate reductase (R67 DHFR). The experiment in a line: steady-state DHFR inhibition vs DHF. In kind it is biochemical.

With “chymotrypsin-truncated R67 dihydrofolate reductase cross-linked to folate with EDC (enzyme)”, the stoichiometry N in test [1] turned out to be 4.

Turning to “chymotrypsin-truncated R67 dihydrofolate reductase (enzyme)”, the stoichiometry N in test [2] was 4 and 2.

For `NCCNC(=O)CC[C@H](NC(=O)c1ccc(NCc2cnc3nc(N)[nH]c(=O)c3n2)cc1)C(=O)NCCN` [bis-EDA–folate], the Ki in test [3] was found to be 140 ± 15 µM.

Consider `Nc1nc(=O)c2nc(CNc3ccc(C(=O)N[C@@H](CCC(=O)O)C(=O)O)cc3)cnc2[nH]1` [folate], for which the “folate reduction kinetics (kcat) and EDC cross-linking inactivation” value in test [4] turned out to be 0.065 ± 0.017 min^–1. In test [5], the Ki was 16 ± 3 µM.

What is called stoichiometry N is a count of units in the complex or per binding partner. What is called Ki is a dissociation constant, usually derived from enzyme kinetics or from competition with a known ligand.
